Publication PMC4865847, “Putative histidine kinase inhibitors with antibacterial effect against multi-drug resistant clinical isolates identified by in vitro and in silico screens” (Scientific Reports, 2016)
In brackets after ≈: the same amount, converted by molar mass.

Legend:
E. coli PhoR (PhoR^E) [1] = target: T1, E. coli PhoR (PhoR^E) (Escherichia coli, UniProt P08400); assay: Aggregation analysis by native-PAGE, PhoR^E; settings: 2 mM (S5 and S6 5 mM), 10% DMSO
T1 construct: The catalytic portion (DHp and CA domain) of E. coli PhoR (PhoR^E); made in house; host or cells: E. coli RIL
Experimental: (§1) E. coli PhoR and EnvZ, and S. aureus PhoR ([…], final concentration) were prepared in kinase buffer. […] DMSO in the assays was maintained to a final concentration 10% (v/v). After 30 min of incubation at room temperature Native polyacrylamide gel electrophoresis (Native-PAGE) loading buffer was added and samples loaded. Coomassie blue staining was used for protein visualization.

HK NblS (CA domain) = assay: Differential scanning fluorimetry (DSF), NblS; type: binding, Synechococcus sp. PCC 7942
Experimental: (§2) To monitor protein unfolding, the fluorescent dye Sypro orange was used[26]. Differential scanning fluorimetry (DSF) experiments were conducted in the iCycleriQ Real Time Detection System (Bio-Rad, Hercules, CA). Solutions of 20 μl of 0.1 mg/ml protein (final concentration), 200 μM fragment cocktails or individual fragments (final concentration), 10X sypro orange (final concentration) and buffer (100 mM TrisCl pH 8, 150 mM NaCl) were added to the wells of the 96-well iCycler iQ PCR plate. The plate was heated from 20 to 85 or 99 °C at a heating rate of 1 °C/min. The fluorescent intensity was measured with Ex/Em: 490/530 nm. Prism GraphPad v.5 was used for curve fitting and statistical analysis.

Staphylococcus aureus = assay: Antibacterial susceptibility testing (MIC/MBC), S. aureus; type: cell-based; settings: Staphylococcus aureus, DSM20231, strain DSM 20231
Experimental: (§3) Minimal inhibitory concentrations (MICs) were determined following a standard double-dilution method. […] For S. pneumoniae MICs were determined by adapting the standard double-dilution method to anaerobic conditions and of this microorganism (use of Todd Hewitt Yeast extract with 200 U/mL of catalase and continuous monitoring of growth).

[2] = target: T2, HK WalK (DHp and CA domain) (Streptococcus pneumoniae, UniProt Q8DPL8); assay: Differential scanning fluorimetry (DSF), WalK; type: binding
T2 construct: WalK (amino acids from 208 to 449); N-terminal His6-3C site of vector pOPINF (own knowledge of the vector); made in house; host or cells: E. coli RIL
Experimental: as §2

Escherichia coli = assay: Antibacterial susceptibility testing (MIC/MBC), E. coli; type: cell-based; settings: Escherichia coli, strain CFT 073; read-out: MIC E. coli CFT 073
Experimental: as §3

S. aureus PhoR (PhoR^S) = S. aureus PhoR (PhoR^S) (Staphylococcus aureus, UniProt Q2FXN7); assay: Aggregation analysis by native-PAGE, PhoR^S; settings: 2 mM (S5 and S6 5 mM), 10% DMSO
Experimental: as §1

[3] = test system: Staphylococcus epidermidis; assay: Antibacterial susceptibility testing (MIC/MBC), S. epidermidis; type: cell-based; settings: Staphylococcus epidermidis, DSM20044, strain DSM 20044; read-out: MIC S. epidermidis DSM 20044
Experimental: as §3

E. coli EnvZ = target: T3, E. coli EnvZ (Escherichia coli, UniProt P0AEJ4); assay: Aggregation analysis by native-PAGE, EnvZ; settings: 2 mM, 10% DMSO
T3 construct: The catalytic portion (DHp and CA domain) of E. coli PhoR (PhoR^E), E. coli EnvZ; made in house; host or cells: E. coli RIL
Experimental: as §1

S. pneumoniae WalK = target: T4, S. pneumoniae WalK (Streptococcus pneumoniae, UniProt Q8DPL8); assay: In vitro autophosphorylation kinase assay with γ-32P-ATP, WalK; type: biochemical
T4 construct: WalK (amino acids from 208 to 449); N-terminal His6-3C site of vector pOPINF (own knowledge of the vector); made in house; host or cells: E. coli RIL
How it was run: (§4)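 Histidine kinase (0.12 mg/ml, ≈4 μM) incubated with up to 20 mM fragment in 50 mM Tris HCl pH 8.5, 50 mM KCl, 5 mM MgCl2, 0.5 mM EDTA, 0.1 mM DTT; started with 0.1 μCi/μl γ-32P-ATP (0.03–0.06 μM ATP final). Phosphoprotein quantified by SDS-PAGE and phosphor-imaging, curve-fitted; DMSO controls.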

E. coli PhoR (PhoR^E) [4] = target: T1, E. coli PhoR (PhoR^E); assay: In vitro autophosphorylation kinase assay with γ-32P-ATP, PhoR^E; type: biochemical; settings: autophosphorylation, one time point (30 sec), 10% DMSO; read-out: IC50 PhoR^E
How it was run: as §4

E. coli = test system: E. coli; parameters: method as in PMID 25561178; settings: cited from earlier work
S. pneumoniae VicK = test system: S. pneumoniae VicK; parameters: method as in PMID 25531939; settings: cited from earlier work
[5] = test system: Gram negative E. coli DC2; parameters: method as in PMID 25531939; settings: cited from earlier work
[6] = test system: Gram-positive B. subtilis; parameters: method as in PMID 25531939; settings: cited from earlier work

T1 sequence (P08400 210-425): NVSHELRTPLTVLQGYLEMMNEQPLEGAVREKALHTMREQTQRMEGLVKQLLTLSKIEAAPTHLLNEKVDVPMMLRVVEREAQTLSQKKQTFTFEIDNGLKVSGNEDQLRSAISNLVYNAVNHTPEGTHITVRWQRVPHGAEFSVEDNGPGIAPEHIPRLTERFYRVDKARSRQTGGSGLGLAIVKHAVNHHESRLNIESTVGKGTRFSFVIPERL
T4 sequence (Q8DPL8 208-449): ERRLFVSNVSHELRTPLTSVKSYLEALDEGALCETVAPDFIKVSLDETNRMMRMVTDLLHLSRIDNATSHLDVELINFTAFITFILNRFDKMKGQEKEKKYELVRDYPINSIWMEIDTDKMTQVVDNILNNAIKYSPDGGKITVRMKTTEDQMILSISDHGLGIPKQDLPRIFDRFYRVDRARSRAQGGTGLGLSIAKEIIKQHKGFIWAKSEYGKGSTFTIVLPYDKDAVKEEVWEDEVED
Sequence of S. aureus PhoR (PhoR^S) (Q2FXN7 entry or part of it): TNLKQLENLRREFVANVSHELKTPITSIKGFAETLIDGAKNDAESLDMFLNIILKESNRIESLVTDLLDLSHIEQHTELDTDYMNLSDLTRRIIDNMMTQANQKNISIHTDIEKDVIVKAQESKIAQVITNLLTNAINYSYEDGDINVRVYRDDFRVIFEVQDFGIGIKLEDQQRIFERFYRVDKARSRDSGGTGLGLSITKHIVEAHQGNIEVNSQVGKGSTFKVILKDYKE
T3 sequence (P0AEJ4 240-440): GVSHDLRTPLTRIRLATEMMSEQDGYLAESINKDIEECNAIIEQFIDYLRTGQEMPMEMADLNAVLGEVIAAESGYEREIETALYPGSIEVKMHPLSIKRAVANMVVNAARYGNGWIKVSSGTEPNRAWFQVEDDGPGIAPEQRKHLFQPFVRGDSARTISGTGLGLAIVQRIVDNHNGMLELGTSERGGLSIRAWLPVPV
T2 sequence (Q8DPL8 208-449): as the sequence (Q8DPL8 208-449) above

Compound: Oc1ccc2c(c1)[nH]c1ccccc12 [F2, 2-hydroxy-carbazole]
- HK aggregation, PhoR^E (E. coli PhoR (PhoR^E) [1]): do not cause HK aggregation
- increase of NblS Tm (HK NblS (CA domain)): 2.2 °C
- MBC (Staphylococcus aureus; read-out: MBC S. aureus DSM 20231): > 500 µg/mL
- MIC (Staphylococcus aureus; read-out: MIC S. aureus DSM 20231): 31 µg/mL (≈ 169 µM)
- increase of WalK Tm [2]: 3.9 °C
- MIC (Escherichia coli): > 500 µg/mL
- HK aggregation, PhoR^S (S. aureus PhoR (PhoR^S)): do not cause HK aggregation
- MIC [3]: > 500 µg/mL
- HK aggregation, EnvZ (E. coli EnvZ): do not cause HK aggregation
- IC50 (S. pneumoniae WalK; autophosphorylation, one time point (30 sec), 10% DMSO, read-out: IC50 WalK): > 2000 µM
- inhibitory capacity for WalK autophosphorylation activity (S. pneumoniae WalK; single concentration 5 mM, 30 sec): weak inhibitory capacity
- IC50 (E. coli PhoR (PhoR^E) [4]): 300 µM

Compound: teixobactin
- antibacterial effect (MIC) against E. coli (E. coli): 2 to 25 µg/mL

Compound: Nc1nc2ccc(Oc3ccc4nc(N)sc4c3)cc2s1 [Compound 11]
- IC50 (S. pneumoniae VicK): 75 µM
- MIC Gram negative [5]: ≥ 32 µg/mL
- MICs for the Gram negative E. coli DC2 [5]: 32 to 64 µg/mL
- MIC Gram positive [6]: ≥ 49 µg/mL
- MICs for the Gram-positive B. subtilis [6]: 49 to 64 µg/mL
